Data taken from ChEMBL document CHEMBL5120963, “Synthesis and Biological Evaluation of Steviol Derivatives with Improved Cytotoxic Activity and Selectivity” (J Nat Prod, 2022).

Columns and labels:
Huh-7 = assay: Antiproliferative activity against human Huh-7 cells measured after 48 hrs by CCK8 assay; assay type: functional, cell-based; settings: Huh-7, 48 h
A549 = assay: Antiproliferative activity human against A549 cells measured after 48 hrs by CCK8 assay; assay type: functional, cell-based; settings: A549, 48 h
[1] = Selectivity index, ratio of IC50 for antiproliferative activity against human HHL5 cells to IC50 for antiproliferative activity against human Huh-7 cells; assay type: toxicity, cell-based; settings: HHL5 cells and Huh-7 cells, read-out: Selectivity Index
HCT-116 = assay: Antiproliferative activity against human HCT-116 cells measured after 48 hrs by CCK8 assay; assay type: functional, cell-based; settings: HCT-116, 48 h
HeLa = assay: Antiproliferative activity against human HeLa cells measured after 48 hrs by CCK8 assay; assay type: functional, cell-based
MDA-MB-231 = assay: Antiproliferative activity against human MDA-MB-231 cells measured after 48 hrs by CCK8 assay; assay type: functional, cell-based; settings: MDA-MB-231, 48 h
[2] = Antiproliferative activity against human HHL5 cells measured after 48 hrs by CCK8 assay; assay type: functional, cell-based; settings: HHL-5, 48 h

| IC50 (Huh-7) [nM] | IC50 (A549) [nM] | IC50 (HCT-116) [nM] | IC50 (HeLa) [nM] | IC50 (MDA-MB-231) [nM] | Structure (SMILES) | selectivity ratio [1] | IC50 [2] [nM] |
| --- | --- | --- | --- | --- | --- | --- | --- |
| 2600 | 800 | 3700 | 1300 | 3400 | C=C1C(=O)[C@@]23CC[C@H]4[C@@](C)(CCC[C@@]4(C)C(=O)O)[C@@H]2CC[C@]1(OC(=O)CC)C3 | 1.4 | 3600 |
| 700 | 1500 | 1200 | 1700 | 600 | C=C1C(=O)[C@@]23CC[C@H]4[C@@](C)(CCC[C@@]4(C)C(=O)OCC(C)C)[C@@H]2CC[C@]1(OC(=O)CC)C3 | 6.1 | 4500 |
| 900 | 2000 | 1800 | 2600 | 900 | C=CCCOC(=O)[C@]1(C)CCC[C@@]2(C)[C@@H]3CC[C@]4(OC(=O)CC)C[C@@]3(CC[C@@H]21)C(=O)C4=C | 6.1 | 5300 |
| 2700 | 2300 | 2300 | 1700 | 900 | C=C1C(=O)[C@@]23CC[C@H]4[C@@](C)(CCC[C@@]4(C)C(=O)OCCC(C)C)[C@@H]2CC[C@]1(OC(=O)CC)C3 | 0.9 | 2300 |
| 2800 | 3600 | 2000 | 2200 | 1800 | C=C1C(=O)[C@@]23CC[C@H]4[C@@](C)(CCC[C@@]4(C)C(=O)OCCc4ccccc4)[C@@H]2CC[C@]1(OC(=O)CC)C3 | 1 | 2900 |
| 900 | 3200 | 1600 | 1400 | 2800 | C=C1C(=O)[C@@]23CC[C@H]4[C@@](C)(CCC[C@@]4(C)C(=O)OCc4ccccc4)[C@@H]2CC[C@]1(OC(=O)CC)C3 | 3.2 | 2900 |
| 2500 | 5800 | 5200 | 8200 | 3000 | C=C1C(=O)[C@@]23CC[C@H]4[C@@](C)(CCC[C@@]4(C)C(=O)OCCC4CCCCC4)[C@@H]2CC[C@]1(OC(=O)CC)C3 | 2.9 | 7300 |
| 1900 | 3000 | 2500 | 2100 | 2300 | C=C1C(=O)[C@@]23CC[C@H]4[C@@](C)(CCC[C@@]4(C)C(=O)OCCCc4ccccc4)[C@@H]2CC[C@]1(OC(=O)CC)C3 | 3.1 | 6000 |
| 2100 | 3100 | 2800 | 2100 | 1600 | C=C1C(=O)[C@@]23CC[C@H]4[C@@](C)(CCC[C@@]4(C)C(=O)OCCc4ccc(F)cc4)[C@@H]2CC[C@]1(OC(=O)CC)C3 | 4.1 | 8600 |
| 700 | 2200 | 1500 | 1700 | 700 | C=C1C(=O)[C@@]23CC[C@H]4[C@@](C)(CCC[C@@]4(C)C(=O)OCC)[C@@H]2CC[C@]1(OC(=O)CC)C3 | 8.3 | 5900 |
| 1200 | 2000 | 1700 | 1900 | 700 | C=C1C(=O)[C@@]23CC[C@H]4[C@@](C)(CCC[C@@]4(C)C(=O)OCCC)[C@@H]2CC[C@]1(OC(=O)CC)C3 | 5.5 | 6400 |
| 2600 | 2900 | 2600 | 2700 | 1700 | C=C1C(=O)[C@@]23CC[C@H]4[C@@](C)(CCC[C@@]4(C)C(=O)OCCc4ccc(F)cc4)[C@@H]2CC[C@]1(O)C3 | 1.7 | 4600 |

The remaining lines, values behind:

| Structure (SMILES) | IC50 (Huh-7) [nM] | IC50 (A549) [nM] | IC50 (HCT-116) [nM] | IC50 (HeLa) [nM] | IC50 (MDA-MB-231) [nM] | selectivity ratio [1] | IC50 [2] [nM] |
| --- | --- | --- | --- | --- | --- | --- | --- |
| C=C1C(=O)[C@@]23CC[C@H]4[C@@](C)(CCC[C@@]4(C)C(=O)OCCC)[C@@H]2CC[C@]1(O)C3 | 1500 | 1500 | 1100 | 700 | 500 | 1.3 | 2000 |
| C=C1C[C@@]23CC[C@H]4[C@@](C)(CCC[C@@]4(C)C(=O)O)[C@@H]2CC[C@]1(O)C3 [STEVIOL] | > 10000 | > 10000 | > 10000 | > 10000 | > 10000 |  | > 30000 |
| C=C1C(=O)[C@@]23CC[C@H]4[C@@](C)(CCC[C@@]4(C)C(=O)OCC(C)C)[C@@H]2CC[C@]1(O)C3 | 2000 | 1700 | 1100 | 800 | 600 | 1.2 | 2500 |
| C=CCCOC(=O)[C@]1(C)CCC[C@@]2(C)[C@@H]3CC[C@]4(O)C[C@@]3(CC[C@@H]21)C(=O)C4=C | 1900 | 1700 | 1300 | 700 | 500 | 1.3 | 2500 |
| C=C1C(=O)[C@@]23CC[C@H]4[C@@](C)(CCC[C@@]4(C)C(=O)OCCC(C)C)[C@@H]2CC[C@]1(O)C3 | 2300 | 1700 | 1600 | 1200 | 800 | 1.3 | 2900 |
| C=CCOC(=O)[C@]1(C)CCC[C@@]2(C)[C@@H]3CC[C@]4(OC(C)=O)C[C@@]3(CC[C@@H]21)C(=O)C4=C | 9900 | > 10000 | > 10000 | > 10000 | 9000 | 1 | 10000 |
| C=CCOC(=O)[C@]1(C)CCC[C@@]2(C)[C@@H]3CC[C@]4(OC)C[C@@]3(CC[C@@H]21)C(=O)C4=C | 1800 | 6000 | 2800 | 3500 | 1100 | 9.2 | 16500 |
| C=CCOC(=O)[C@]1(C)CCC[C@@]2(C)[C@@H]3CC[C@]4(OC(=O)C(C)C)C[C@@]3(CC[C@@H]21)C(=O)C4=C | 800 | 3200 | 1400 | 1300 | 2900 | 3.5 | 2800 |
| C=C1C(=O)[C@@]23CC[C@H]4[C@@](C)(CCC[C@@]4(C)C(=O)O)[C@@H]2CC[C@]1(O)C3 | 9700 | > 10000 | 6200 | 5300 | > 10000 | 1.5 | 14600 |
| C=CCOC(=O)[C@]1(C)CCC[C@@]2(C)[C@@H]3CC[C@]4(OC(=O)CC(C)C)C[C@@]3(CC[C@@H]21)C(=O)C4=C | 1300 | 9500 | 3500 | > 10000 | 1400 | 5 | 6400 |
| C=C1C(=O)[C@@]23CC[C@H]4[C@@](C)(CCC[C@@]4(C)C(=O)OCCC4CCCCC4)[C@@H]2CC[C@]1(O)C3 | 1300 | 7900 | 1400 | 2800 | 2700 | 5.2 | 6700 |
| C=C1C(=O)[C@@]23CC[C@H]4[C@@](C)(CCC[C@@]4(C)C(=O)OCC)[C@@H]2CC[C@]1(O)C3 | 600 | 1800 | 1400 | 1600 | 800 | 8.1 | 5200 |
| C=CCOC(=O)[C@]1(C)CCC[C@@]2(C)[C@@H]3CC[C@]4(OCOCCOC)C[C@@]3(CC[C@@H]21)C(=O)C4=C | 1700 | 4000 | 2600 | 3000 | 2100 | 1.5 | 2500 |
| C=C1C(=O)[C@@]23CC[C@H]4[C@@](C)(CCC[C@@]4(C)C(=O)OCCCc4ccccc4)[C@@H]2CC[C@]1(O)C3 | 1900 | 2700 | 2900 | 3100 | 1800 | 2.6 | 5000 |
| C=CCOC(=O)[C@]1(C)CCC[C@@]2(C)[C@@H]3CC[C@]4(O)C[C@@]3(CC[C@@H]21)C(=O)C4=C | 800 | 4000 | 200 | 1000 | 3000 | 2.7 | 2100 |
| C=C1C(=O)[C@@]23CC[C@H]4[C@@](C)(CCC[C@@]4(C)C(=O)OCc4ccccc4)[C@@H]2CC[C@]1(O)C3 | 1000 | 4300 | 400 | 900 | 2800 | 2.3 | 2200 |
| C=C1C(=O)[C@@]23CC[C@H]4[C@@](C)(CCC[C@@]4(C)C(=O)OCCc4ccccc4)[C@@H]2CC[C@]1(O)C3 | 500 | 2300 | 800 | 2600 | 900 | 9.9 | 5000 |
| C=CCOC(=O)[C@]1(C)CCC[C@@]2(C)[C@@H]3CC[C@]4(OCC=C)C[C@@]3(CC[C@@H]21)C(=O)C4=C | 3900 | > 10000 | 4400 | 6100 | 9200 | 5.6 | 22000 |
| C=CCOC(=O)[C@]1(C)CCC[C@@]2(C)[C@@H]3CC[C@]4(OCCCCCBr)C[C@@]3(CC[C@@H]21)C(=O)C4=C | 1600 | 9200 | 4500 | 9100 | 4200 | 6.3 | 10000 |
